Measured values taken from paper doi:10.1101/2025.04.10.648262, “Time-resolved phenotyping at subcellular resolution reveals shared principles and key trade-offs across antimicrobial peptide activities” (bioRxiv, 2026).
Like-named read-outs stand apart in the source and are kept apart here. Bridge positions count the residues as written; N and C are the ends. Ends that are not written are not given here.

Tests used:
Type in all cases: cell-based, Escherichia coli
E. coli (MG1655) = settings: MG1655, 20 h
Experimental: For all experiments and E. coli strains, cells were grown in a medium (M9gluCAAT) with M9 salts (33.7 mM Na2HPO4, 22mM KH2PO4, 8.55 mM NaCl, 9.35 mM NH4Cl), 0.2% (w/v) glucose, 0.4% (w/v) casamino acids, 1 mM MgSO4, 0.3 mM CaCl2, 1 μg/mL thiamine, and trace elements (13.4 mM ethylene-diamine-tetra-acetic-acid (EDTA), 3.1 mM FeCl3-6H2O, 0.62 mM ZnCl2, 76 μM CuCl2-2H2O, 42 μM CoCl2-2H2O, 162 μM H3BO3, 8.1 μM MnCl2-4H2O). Prior to every experiment, cells were first inoculated into M9gluCAAT and grown to stationary phase at 37°C. For all assays except the biofilm experiments, the culture was diluted to 1/10,000 or more in fresh medium and grown at 37°C until it reached an optical density at 600 nm (OD) of 0.2–0.4. For the biofilm experiments, cells were grown in M9gluCAAT supplemented with 100 μg/mL ampicillin to maintain the GFP-expressing plasmid. The overnight stationary-phase cultures were then diluted into the same medium to an OD of 0.015. See below for details on biofilm growth.
Except for the biofilm experiments, the strains used in this study were derived from MG1655 (ATCC 47076), which was used to estimate the minimum inhibitory concentration (MIC) for all the studied peptides (or peptoids) using a microplate reader (Figure 1A). To detect the timing of outer and inner membrane permeabilization to proteins, strain CJW7845 was constructed to carry two freely diffusing fluorescent proteins: mScarlet-I in the periplasm and mTagBFP2 in the cytoplasm. Construction of CJW7845 was done by transforming pBAD-mTagBFP2 plasmid (Addgene #34632, a gift from Vladislav Verkhusha; ([Subach et al., 2011])) into an E. coli strain expressing a periplasmic mScarlet-I reporter ([Cañas-Duarte 2021]), as previously described ([Chung et al., 1989]). Transformants were restreaked on fresh selection plates and confirmed via microscopy.
(§1) To determine the minimal inhibitory concentration (MIC) of the selected AMPs against either MG1655 or ATCC 25922 E. coli strains, exponentially growing cells were diluted in fresh medium to an OD = 10^−6 (~500 cells/mL) and mixed 50:50 with titrated AMP concentrations (which were chosen to be over a range that included the MIC) in a 96-well plate (flat bottom with low evaporation lid, 3595, Corning, Arizona, USA). A final OD of 5 × 10^−7 corresponds to ~250 cells/mL. OD curves were sampled every 5 min for a total of 48 h using a microplate reader (BioTek Synergy 2, Agilent Technologies Inc., California, USA). Raw data were exported as a text file and analysed using a custom-written Python script (microplate_reader_analysis.py). To measure maximum growth rates, the log(OD) was fitted using a linear regression over a 12-point moving window (60 min), which provides the instantaneous growth rate (log(OD)/h), from which the global maximum was computed. The MIC was defined as the minimum AMP concentration for which the maximum growth rate was < 0.2 log(OD)/h within the first 20 h of incubation. Each MIC experiment was performed independently at least three times (with at least two technical replicates each), and the mode across all replicates was taken as the final MIC; in the rare cases of a tie, an additional replicate was performed, which was sufficient to resolve it.

E. coli ATCC 25922 = system: E. coli ATCC 25922
Experimental: Strain ATCC 25922GFP (ATCC, Virginia, USA), which carries a GFP-expressing plasmid, was selected for biofilm experiments. The strain’s ability to form biofilms was first verified at 37°C using Congo Red staining on agar plate containing M9gluCAAT. Congo Red dye binds curli, a major component of the biofilm extracellular matrix. Strain ATCC 25922 (lacking the GFP-expressing plasmid) was used for MIC determination (to avoid interference from the presence of ampicillin required to maintain the plasmid) following the standard growth protocol described above.
as §1

E. coli strain (CJW7845) = assay: Time-lapse single-cell phenotyping of inner/outer membrane permeabilization to proteins and growth arrest in microwells; design: key to Class (timing of growth arrest relative to IM permeabilization to proteins): Class I AMPs and PMs cause growth arrest predominantly associated with inner membrane (IM) permeabilization; class II compounds inhibit growth without substantial IM permeabilization; settings: for OM-permeabilized cells among IM-permeabilized cells: CJW7845, during the experiment
Experimental: For experiments with PDMS microwells, cells were allowed to grow for ~30 min in the temperature-controlled enclosure prior to imaging. A 10X concentrated AMP solution was spiked in (at 1/10 the volume of the well) and mixed well by pipetting after ~20 min from the start of the image acquisition, without interrupting the timelapse sequence. When the uptake of SYTOX Green was monitored, SYTOX Green was included in the AMP solution and spiked in during the experiment to obtain a final concentration of SYTOX Green of 50 nM in the well. This allowed us to monitor healthy cell growth prior to AMP treatment, to rapidly set the desired AMP (or SYTOX Green) concentration from one frame to the next (unlike for flow-controlled injection systems), and to resolve the AMP-induced phenotype in real time. The current design allows for testing up to four independent conditions in parallel.
To analyse the single-cell experiments in microwells, OmniSegger software (https://github.com/tlo-bot/omnisegger), which combines SuperSegger MATLAB-based suite ([Stylianidou et al., 2016]) for cell analysis with Omnipose segmentation ([Cutler et al., 2022]), was used to first process the microscopy images by performing drift correction, cell segmentation, and cell linking. Given that AMP-treated cells can display extreme phenotypes, such as exceedingly bright and/or heterogeneous phase contrast signal (likely a result of the widely changing intracellular density upon AMP treatment) and that the software’s pre-trained model bact_phase_omni ([Cutler et al, 2022]) tended to split cells before cell division was completed, a new Omnipose model was trained from scratch starting from bact_phase_omni-generated masks that were further corrected and curated using custom-made Python scripts (screening_good_bad.py and generate_training_dataset.py). Details on the Omnipose model retraining can be found in a previous publication ([Thappeta et al., 2025]). The final model (omnipose_phase_microwells_model) and corresponding training datasets are available at https://github.com/JacobsWagnerLab/published/tree/master/Fragasso_et_al_2025 and BioImage Archive (accession number: S-BIAD1823), respectively.
MATLAB files of the linked cell trajectories output from OmniSegger were then imported, background subtracted using background_subtraction.py, which was adapted from a previous study ([Papagiannakis et al., 2025]), and converted to Python data structures (import_processing_code.py), from which cell features such as cell area, nucleoid area, mean fluorescence intensity, etc., were extracted for each cell at each frame. The exported dataframes were further processed to estimate instantaneous growth rates and were run through a series of functions to perform curation based on cell areas and instantaneous growth rates over time (post_processing_curation_functions.py). […] Represented data points were pooled from multiple replicates.
Analysis of strain CJW7845 proceeded by extracting the timings of permeabilization of the outer and inner membranes based on the mean fluorescence intensities of mScarlet-I and/or mTagBFP2 fluorescent proteins (using function get_permeabilization_time.py), cell growth arrest, and the initiation time of growth inhibition. To obtain accurate timings underlying membrane permeabilization events, information from both the signal intensity itself as well as its derivative were combined, which enabled us to accurately resolve the relevant changes in fluorescent protein signal beyond the intrinsic high-frequency noise and low-frequency photobleaching. Inner membrane permeabilization to proteins can result in two possible phenotypes when simultaneously monitoring freely diffusing periplasmic and cytoplasmic probes, depending on which membrane (outer or inner) becomes permeabilized first. When the outer membrane is first permeabilized, mScarlet-I signal is lost first, followed by mTagBFP2 when the inner membrane becomes also permeabilized. […]

[1] = 2X MIC, CJW7845, M9gluCAAT, 37°C, time-lapse microscopy

| Molecule | MIC (mode MIC) (E. coli (MG1655)) [µM] | MIC (mode MIC) (E. coli ATCC 25922; ATCC 25922, 20 h) [µM] | further results |
| --- | --- | --- | --- |
| CC(C)C[C@H](NC(=O)[C@H](CCCNC(=N)N)NC(=O)CNC(=O)CNC(=O)[C@@H](N)CCCNC(=N)N)C(=O)N[C@H]1CSSC[C@@H](C(=O)N[C@H](C(=O)NCC(=O)N[C@@H](CCCNC(=N)N)C(N)=O)C(C)C)NC(=O)[C@H](C(C)C)NC(=O)[C@@H]2CSSC[C@H](NC(=O)[C@H](Cc3ccc(O)cc3)NC1=O)C(=O)N[C@@H](CCCNC(=N)N)C(=O)N[C@@H](CCCNC(=N)N)C(=O)N[C@@H](CCCNC(=N)N)C(=O)N[C@@H](Cc1ccccc1)C(=O)N2 [PG-1, protegrin-1] | – | – | Class (timing of growth arrest relative to IM permeabilization to proteins) (E. coli strain (CJW7845); [1]): I; OM-permeabilized cells among IM-permeabilized cells (E. coli strain (CJW7845); 2X MIC): 163/163; OM-permeabilized cells (out of all IM-permeabilized cells) (E. coli strain (CJW7845); 10X MIC, CJW7845): 48/59 |
| RRIRPRPPRLPRPRPRPLPFPRPGPRPIPRPLPFP [Bac7, bactenecin-7] | 0.6 | 0.6 | – |
| CC[C@H](C)[C@H](N)C(=O)N[C@@H](CC(C)C)C(=O)N1CCC[C@H]1C(=O)N[C@@H](Cc1c[nH]c2ccccc12)C(=O)N[C@@H](CCCCN)C(=O)N[C@@H](Cc1c[nH]c2ccccc12)C(=O)N1CCC[C@H]1C(=O)N[C@@H](Cc1c[nH]c2ccccc12)C(=O)N[C@@H](Cc1c[nH]c2ccccc12)C(=O)N1CCC[C@H]1C(=O)N[C@@H](Cc1c[nH]c2ccccc12)C(=O)N[C@@H](CCCNC(=N)N)C(=O)N[C@@H](CCCNC(=N)N)C(N)=O [Indo, indolicidin] | 12.5 | – | MIC (mode MIC) (E. coli ATCC 25922; E. coli ATCC 25922, M9gluCAAT, 37°C, 20 h, mode across four biological replicates): 6.2 µM |
| GIINTLQKYYCRVRGGRCAVLSCLPKEEQIGKCSTRGRKCCRRKK (disulfide 11-40, 18-33, 23-41 (inferred)) [HBD-3, human β-defensin 3] | 20 | – | Class (timing of growth arrest relative to IM permeabilization to proteins) (E. coli strain (CJW7845); [1]): I; Type (relative timing of OM and IM permeabilization) (E. coli strain (CJW7845); [1]): B (type B AMPs and PMs permeabilize the IM well before (>10 min) the OM); OM-permeabilized cells among IM-permeabilized cells (E. coli strain (CJW7845); 2X MIC): 7/82 |

Continued, in another order:

| MIC (mode MIC) (E. coli (MG1655)) [µM] | MIC (mode MIC) (E. coli ATCC 25922; ATCC 25922, 20 h) [µM] | Molecule | further results |
| --- | --- | --- | --- |
| 2 | 1 | RRRPRPPYLPRPRPPPFFPPRLPPRIPPGFPPRFPPRFP-NH2 [PR-39] | – |
| 0.5 | 0.5 | KWKLFKKIEKVGQNIRDGIIKAGPAVAVVGQATQIAK-NH2 [CecA, cecropin A] | – |
| 1 | 1 | RRIRFRPPYLPRPGRRPRFPPPFPIPRIPRIP [Tur1A] | – |
